Our source for the EC50 values is US11708348B2, “Protease inhibitors for treatment of coronavirus infections” (The Scripps Research Institute, priority 2021, dated 2023).

Usually EC50 stands for the concentration needed to bring the measured effect to its halfway point.

Some results are limits rather than exact numbers.

The subject of the first experiment is SARS-CoV-2 strain USA-WA1/2020. Kind of experiment: microbe, parasite or virus in culture. It is filed as cell-based. The following applies: Severe acute respiratory syndrome coronavirus 2, HeLa-ACE2, 24 h, HeLa-ACE2 cells, SARS-CoV-2 infection, 24 h; bound printed in cell; read-out: EC50, uM (Hela).
On to `O=C1NCC[C@H]1C[C@H](NC(=O)[C@@H]1C[C@H]2C[C@H]2N1C(=O)[C@H]1CCCO1)C(=O)COC(F)(F)F` [Compound 303, (1R,3S,5R)-N-((S)-3-oxo-1-((S)-2-oxopyrrolidin-3-yl)-4-(trifluoromethoxy)butan-2-yl)-2-((R)-tetrahydrofuran-2-carbonyl)-2-azabicyclo[3.1.0]-hexane-3-carboxamide], for which the concentration for a half-maximal effect (EC50) is more than 1 µM.

With `O=C1NCC[C@H]1C[C@H](NC(=O)[C@@H]1C[C@H]2C[C@H]2N1C(=O)[C@@H]1CCCO1)C(=O)COC(F)(F)F` [Compound 304, (1R,3S,5R)-N-(3-oxo-1-((S)-2-oxopyrrolidin-3-yl)-4-(trifluoromethoxy)butan-2-yl)-2-((S)-tetrahydrofuran-2-carbonyl)-2-azabicyclo[3.1.0]-hexane-3-carboxamide], the EC50 was more than 1 µM. Regarding `CC1(C(=O)N2C[C@@H]3CCC[C@@H]3[C@H]2C(=O)N[C@@H](C[C@@H]2CCNC2=O)C(=O)COC(F)(F)F)CCCO1` (stereo partly drawn) [Compound 310, (1S,3aR,6aS)-2-(2-methyltetrahydrofuran-2-carbonyl)-N-((S)-3-oxo-1-((S)-2-oxopyrrolidin-3-yl)-4-(trifluoromethoxy)butan-2-yl)octahydro-cyclopenta[c]pyrrole-1-carboxamide], the EC50 is more than 1 µM.

Staying with this experiment, now noted: Severe acute respiratory syndrome coronavirus 2, HeLa-ACE2, 24 h, HeLa-ACE2 cells, SARS-CoV-2 infection, 24 h; class symbols; read-out: EC50, uM (Hela).
For `O=C1NCC[C@H]1C[C@H](NC(=O)[C@H](CC1CC1)NC(=O)[C@H]1CCCO1)C(=O)COC(F)(F)F` [Compound 300, (R)-N-((S)-3-cyclopropyl-1-oxo-1-(((S)-3-oxo-1-((S)-2-oxopyrrolidin-3-yl)-4-(trifluoromethoxy)butan-2-yl)amino)propan-2-yl)tetrahydrofuran-2-carboxamide], the concentration giving a half-maximal response (EC50) was less than 0.05 µM. Consider `CC(C)(C)C[C@H](NC(=O)[C@H]1CCCO1)C(=O)N[C@@H](C[C@@H]1CCNC1=O)C(=O)COC(F)(F)F` [Compound 301, (R)-N-((S)-4,4-dimethyl-1-oxo-1-(((S)-3-oxo-1-((S)-2-oxopyrrolidin-3-yl)-4-(trifluoromethoxy)butan-2-yl)amino)pentan-2-yl)tetrahydrofuran-2-carboxamide], for which the EC50 was less than 0.05 µM.

On to `O=C1NCC[C@H]1C[C@H](NC(=O)[C@@H]1CC2(CC2)CN1C(=O)[C@H]1CCCO1)C(=O)COC(F)(F)F` [Compound 305, (S)-N-((S)-3-oxo-1-((S)-2-oxopyrrolidin-3-yl)-4-(trifluoromethoxy)butan-2-yl)-5-((R)-tetrahydrofuran-2-carbonyl)-5-azaspiro[2.4]heptane-6-carboxamide], for which the 50% effective concentration (EC50) lay within 0.2 to 0.5 µM. As to `CC1(C)[C@@H]2[C@@H](C(=O)N[C@@H](C[C@@H]3CCNC3=O)C(=O)COC(F)(F)F)N(C(=O)[C@H]3COCCO3)C[C@@H]21` [Compound 306, (1R,2S,5S)-3-((R)-1,4-dioxane-2-carbonyl)-6,6-dimethyl-N-((S)-3-oxo-1-((S)-2-oxopyrrolidin-3-yl)-4-(trifluoromethoxy)butan-2-yl)-3-azabicyclo[3.1.0]-hexane-2-carboxamide], the EC50 was in the range of 0.05 to 0.2 µM. On to `CC1(C)[C@@H]2[C@@H](C(=O)N[C@@H](C[C@@H]3CCNC3=O)C(=O)COC(F)(F)F)N(C(=O)[C@@H]3COCCO3)C[C@@H]21` [Compound 307, (1R,2S,5S)-3-((S)-1,4-dioxane-2-carbonyl)-6,6-dimethyl-N-((S)-3-oxo-1-((S)-2-oxopyrrolidin-3-yl)-4-(trifluoromethoxy)butan-2-yl)-3-azabicyclo[3.1.0]hexane-2-carboxamide], for which the EC50 is 0.2 to 0.5 µM. On the same count and under the same terms, in the case of `O=C1NCC[C@H]1C[C@H](NC(=O)[C@@H]1[C@H]2CCC[C@H]2CN1C(=O)C12CCC(CC1)O2)C(=O)COC(F)(F)F` [Compound 308, (1S,3aR,6aS)-2-(7-oxabicyclo[2.2.1]-heptane-1-carbonyl)-N-((S)-3-oxo-1-((S)-2-oxopyrrolidin-3-yl)-4-(trifluoromethoxy)butan-2-yl)octahydrocyclo-penta[c]pyrrole-1-carboxamide] it was 0.05 to 0.2 µM; in that of `CC(C)C[C@H](NC(=O)C12CCC(CC1)O2)C(=O)N[C@@H](C[C@@H]1CCNC1=O)C(=O)COC(F)(F)F` [Compound 309, N-((S)-4-methyl-1-oxo-1-(((S)-3-oxo-1-((S)-2-oxopyrrolidin-3-yl)-4-(trifluoromethoxy)butan-2-yl)amino)pentan-2-yl)-7-oxabicyclo [2.2.1]-heptane-1-carboxamide], less than 0.05 µM. Same read-out and setting: in the case of `CC12COC(C(=O)N3C[C@@H]4CCC[C@@H]4[C@H]3C(=O)N[C@@H](C[C@@H]3CCNC3=O)C(=O)COC(F)(F)F)(C1)C2` [Compound 312, (1S,3aR,6aS)-2-(4-methyl-2-oxabicyclo-[2.1.1]hexane-1-carbonyl)-N-((S)-3-oxo-1-((S)-2-oxopyrrolidin-3-yl)-4-(trifluoromethoxy)butan-2-yl)octahydrocyclo-penta[c]pyrrole-1-carboxamide] it was 0.05 to 0.2 µM. In the case of `CC(C)C[C@H](NC(=O)C12CC(C)(CO1)C2)C(=O)N[C@@H](C[C@@H]1CCNC1=O)C(=O)COC(F)(F)F` [Compound 313, 4-methyl-N-((S)-4-methyl-1-oxo-1-(((S)-3-oxo-1-((S)-2-oxopyrrolidin-3-yl)-4-(trifluoromethoxy)butan-2-yl)amino)pentan-2-yl)-2-oxabicyclo-[2.1.1]hexane-1-carboxamide], the EC50 lay within 0.05 to 0.2 µM. Consider `O=C1NCC[C@H]1C[C@H](NC(=O)[C@@H]1[C@H]2CCC[C@H]2CN1C(=O)C12CC(C(F)(F)F)(CO1)C2)C(=O)COC(F)(F)F` [Compound 315, (1S,3aR,6aS)-N-((S)-3-oxo-1-((S)-2-oxopyrrolidin-3-yl)-4-(trifluoromethoxy)butan-2-yl)-2-(4-(trifluoromethyl)-2-oxabicyclo[2.1.1]-hexane-1-carbonyl)-octahydrocyclopenta-[c]pyrrole-1-carboxamide], for which the 50% effective concentration (EC50) is less than 0.05 µM.

Regarding `CC(C)C[C@H](NC(=O)C12CC(C(F)(F)F)(CO1)C2)C(=O)N[C@@H](C[C@@H]1CCNC1=O)C(=O)COC(F)(F)F` [Compound 316, N-((S)-4-methyl-1-oxo-1-(((S)-3-oxo-1-((S)-2-oxopyrrolidin-3-yl)-4-(trifluoromethoxy)butan-2-yl)amino)pentan-2-yl)-4-(trifluoromethyl)-2-oxabicyclo-[2.1.1]hexane-1-carboxamide], the half-maximal effective concentration (EC50) was less than 0.05 µM. The same measure, in the same setting: as for `O=C1NCC[C@H]1C[C@H](NC(=O)[C@@H]1CC2(CC2)CN1C(=O)C12CC(C(F)(F)F)(CO1)C2)C(=O)COC(F)(F)F` [Compound 317, (6S)—N-[(2S)-3-oxo-1-[(3S)-2-oxopyrrolidin-3-yl]-4-(trifluoromethoxy)butan-2-yl]-5-[4-(trifluoromethyl)-2-oxabicyclo[2.1.1]hexane-1-carbonyl]-5-azaspiro[2.4]heptane-6-carboxamide], the figure is less than 0.05 µM; as for `CC1(C)[C@@H]2[C@@H](C(=O)N[C@@H](C[C@@H]3CCNC3=O)C(=O)COC(F)(F)F)N(C(=O)C34CC(C(F)(F)F)(CO3)C4)C[C@@H]21` [Compound 318, (1R,2S,5S)-6,6-dimethyl-N-((S)-3-oxo-1-((S)-2-oxopyrrolidin-3-yl)-4-(trifluoromethoxy)butan-2-yl)-3-(4-(trifluoromethyl)-2-oxabicyclo[2.1.1]-hexane-1-carbonyl)-3-azabicyclo[3.1.0]-hexane-2-carboxamide], 0.05 to 0.2 µM; as for `CC(C)C[C@H](NC(=O)C12CC(C(F)F)(CO1)C2)C(=O)N[C@@H](C[C@@H]1CCNC1=O)C(=O)COC(F)(F)F` [Compound 319, 4-(difluoromethyl)-N-((S)-4-methyl-1-oxo-1-(((S)-3-oxo-1-((S)-2-oxopyrrolidin-3-yl)-4-(trifluoromethoxy)butan-2-yl)amino)pentan-2-yl)-2-oxabicyclo-[2.1.1]hexane-1-carboxamide], less than 0.05 µM. On to `O=C1NCC[C@H]1C[C@H](NC(=O)[C@@H]1CC2(CC2)CN1C(=O)C12CC(C(F)F)(CO1)C2)C(=O)COC(F)(F)F` [Compound 320, (S)-5-(4-(difluoromethyl)-2-oxabicyclo[2.1.1]-hexane-1-carbonyl)-N-((S)-3-oxo-1-((S)-2-oxopyrrolidin-3-yl)-4-(trifluoromethoxy)butan-2-yl)-5-azaspiro[2.4]-heptane-6-carboxamide], for which the EC50 is 0.2 to 0.5 µM.

`O=C1NCC[C@H]1C[C@H](NC(=O)[C@@H]1[C@H]2CCC[C@H]2CN1C(=O)C12CC(C(F)F)(CO1)C2)C(=O)COC(F)(F)F` [Compound 321, (1S,3aR,6aS)-2-(4-(difluoromethyl)-2-oxabicyclo[2.1.1]hexane-1-carbonyl)-N-((S)-3-oxo-1-((S)-2-oxopyrrolidin-3-yl)-4-(trifluoromethoxy)butan-2-yl)octahydrocyclopenta-[c]pyrrole-1-carboxamide]: the concentration giving a half-maximal response (EC50) lay in the range of 0.05 to 0.2 µM.

In the case of `CC1(C)[C@@H]2[C@@H](C(=O)N[C@@H](C[C@@H]3CCNC3=O)C(=O)COC(F)(F)F)N(C(=O)C34CC(C(F)F)(CO3)C4)C[C@@H]21` [Compound 322, (1R,2S,5S)-3-(4-(difluoromethyl)-2-oxabicyclo[2.1.1]-hexane-1-carbonyl)-6,6-dimethyl-N-((S)-3-oxo-1-((S)-2-oxopyrrolidin-3-yl)-4-(trifluoromethoxy)butan-2-yl)-3-azabicyclo-[3.1.0]hexane-2-carboxamide], the EC50 was in the range of 0.05 to 0.2 µM.

Still in this experiment, the particulars now being: Severe acute respiratory syndrome coronavirus 2, HeLa-ACE2, 24 h; read-out: EC50, uM (Hela).
Regarding `CC(C)C[C@H](NC(=O)C12CC(NC(=O)C(F)(F)F)(CO1)C2)C(=O)N[C@@H](C[C@@H]1CCNC1=O)C(=O)COC(F)(F)F` [Compound 314, N-((S)-4-methyl-1-oxo-1-(((S)-3-oxo-1-((S)-2-oxopyrrolidin-3-yl)-4-(trifluoromethoxy)butan-2-yl)amino)pentan-2-yl)-4-(2,2,2-trifluoroacetamido)-2-oxabicyclo[2.1.1]-hexane-1-carboxamide], the half-maximal effective concentration (EC50) is 0.2 to 0.5 µM.
